Measured values from patent publication US20240065998A1, “MONOACYLGLYCEROL AND FREE FATTY ACID-BASED COMPOSITIONS, METHODS OF MANUFACTURING AND USE OF THE SAME” (priority 2021, published 2024).
Where two headings read alike, the source gives them in different places.

Legend:
[1] = system: Respiratory syncytial virus (RSV, A2); format: cell-based; details: 70%, 2 min, 37 ± 2° C.; for LRV: VC titer 3.3
SARS-CoV-2, USA_WA1/2020 = format: cell-based; details: 70%, 2 min, 37 ± 2° C.
[2] = system: Herpes simplex-1 (HSV-1, H1KOS S1); assay: Virucidal assay, 2 minute contact, end-point dilution (CCID50, LRV); format: cell-based; details: 70%, 2 min, 37 ± 2° C.
[3] = system: titer assay cells (MA-104, Vero E6, Vero 76)
[4] = system: Respiratory Syncytial Virus (RSV), Herpes Simplex Virus (HSV), H1N1 flu virus, and SARS-CoV-2; format: cell-based; details: nEMO at 0.5 to 50 mg/mL, EtOH 70%
Source text: Table 73 below provides formulations of a nEMO sanitizer with 0.5% nEMO, 29.5% glycerol, and 70% […].

[5] = HLB values of compositional components; details: share in the oil phase of ACv14 (% of oil phase x rHLB); Total = sum
Source text: HLB is typically considered when planning oil-in-water cream formulations according to the requirements of the cream.
If the Oat EMO is omitted and the Flax FFA oil raised, then a higher rHLB is required, meaning that a larger percentage of the emulsifier can be high HLB (S-20). This 0% Oat MAG (EMO) and 4% Flaxseed FFA oil combo gives an rHLB value of 12.64, which would coincide with a 25/75 ratio of S-2/S-20 or Monolaurin/S-20. This would minimize the amount of S-2 which caused larger coalescence at a 1:1 ratio overnight.

[6] = cited from earlier work; for HLB: exemplary HLB value of the single emulsifier

CCO [Ethanol]
Virus Titer ([1]; Table 57A): <0.7 log10 CCID50 of virus per 0.1 mL
LRV ([1]; Table 57A): >2.6
Virus Titer ([1]; Table 57B): <0.7 log10 CCID50 of virus per 0.1 mL
LRV ([1]; Table 57B): >2.6
Virus Titer (SARS-CoV-2, USA_WA1/2020; Table 59A): <0.7 log10 CCID50 of virus per 0.1 mL
LRV (SARS-CoV-2, USA_WA1/2020; Table 59A, VC titer 5.3): >4.6
Virus Titer (SARS-CoV-2, USA_WA1/2020; Table 59B): <0.7 log10 CCID50 of virus per 0.1 mL
LRV (SARS-CoV-2, USA_WA1/2020; Table 59B, VC titer 5.0): >4.3
LRV ([2]; Table 60A, VC titer 4.5): >3.8
LRV ([2]; Table 60B, VC titer 5.0): >4.3
Toxicity (highest dilution of the endpoint titer with full (80-100%) cytotoxicity) [3]: None

CCO [EtOH]
Virucidal Activity ([4]; H1N1, Log10 of initial virus concentration 5.7): >99.99%
Virucidal Activity ([4]; HSV, Log10 of initial virus concentration 5): >99.99%
Virucidal Activity ([4]; RSV, Log10 of initial virus concentration 3.3): >99%
Virucidal Activity ([4]; SARS-COV-2, Log10 of initial virus concentration 5): >99.99%

CCCCCCCCCCCCCCCCO [Cetyl Alcohol]
rHLB of oil percentage [5]: 3.69
Required HLB (rHLB) ([6]; exemplary value of the oil phase component): 15.5

Glyceryl Stearate SE
HLB [6]: 5.8

CCCCCCCCCCCC(=O)OCC(O)CO (centres unmarked) [Glyceryl Laurate]
HLB [6]: 5.2

Steareth-2
HLB [6]: 4.9
